Assay results as given in ChEMBL document CHEMBL5365532, “Discovery of Triazinone Derivatives as Novel, Specific, and Direct NLRP3 Inflammasome Inhibitors for the Treatment of DSS-Induced Ulcerative Colitis” (J Med Chem, 2023).
Activity calls are given as the source filed them. No cut-off for these calls is given here.

Experiments:
Homo sapiens [1] = species: Homo sapiens; experiment: Binding affinity to N-terminal GST-tagged human NLRP3deltaLRR mutant (1 to 649 residues) expressed in Escherichia coli BL21 assessed as increase in protein thermal stability at 10 to 20 uM at 48 to 72 degC by CETSA analysis; settings: dose 10-20 µM
[2] = Metabolic stability in human liver microsomes; assay type: ADME, Microsome
[3] = Half life in BALB/c mouse at 10 mg/kg, iv; assay type: ADME, organism-based; settings: in vivo
[4] = biological target: NACHT, LRR and PYD domains-containing protein 3 (Mus musculus) (UniProt Q8R4B8); experiment: Inhibition of NLRP3 inflammasome in C57BL/6 mouse BMDM cells assessed as inhibition of LPS/MSU-induced IL-1 beta secretion at 0.2 to 0.8 uM pretreated with LPS for 3 hrs followed by incubation with compound for 40 mins and later stimulated with MSU for 12 hrs by ELISA; assay type: cell-based; settings: dose 0.2-0.8 µM, time 760.0 min
Chain of NACHT, LRR and PYD domains-containing protein 3 (Mus musculus) (Q8R4B8 whole entry, the tested form may be a part): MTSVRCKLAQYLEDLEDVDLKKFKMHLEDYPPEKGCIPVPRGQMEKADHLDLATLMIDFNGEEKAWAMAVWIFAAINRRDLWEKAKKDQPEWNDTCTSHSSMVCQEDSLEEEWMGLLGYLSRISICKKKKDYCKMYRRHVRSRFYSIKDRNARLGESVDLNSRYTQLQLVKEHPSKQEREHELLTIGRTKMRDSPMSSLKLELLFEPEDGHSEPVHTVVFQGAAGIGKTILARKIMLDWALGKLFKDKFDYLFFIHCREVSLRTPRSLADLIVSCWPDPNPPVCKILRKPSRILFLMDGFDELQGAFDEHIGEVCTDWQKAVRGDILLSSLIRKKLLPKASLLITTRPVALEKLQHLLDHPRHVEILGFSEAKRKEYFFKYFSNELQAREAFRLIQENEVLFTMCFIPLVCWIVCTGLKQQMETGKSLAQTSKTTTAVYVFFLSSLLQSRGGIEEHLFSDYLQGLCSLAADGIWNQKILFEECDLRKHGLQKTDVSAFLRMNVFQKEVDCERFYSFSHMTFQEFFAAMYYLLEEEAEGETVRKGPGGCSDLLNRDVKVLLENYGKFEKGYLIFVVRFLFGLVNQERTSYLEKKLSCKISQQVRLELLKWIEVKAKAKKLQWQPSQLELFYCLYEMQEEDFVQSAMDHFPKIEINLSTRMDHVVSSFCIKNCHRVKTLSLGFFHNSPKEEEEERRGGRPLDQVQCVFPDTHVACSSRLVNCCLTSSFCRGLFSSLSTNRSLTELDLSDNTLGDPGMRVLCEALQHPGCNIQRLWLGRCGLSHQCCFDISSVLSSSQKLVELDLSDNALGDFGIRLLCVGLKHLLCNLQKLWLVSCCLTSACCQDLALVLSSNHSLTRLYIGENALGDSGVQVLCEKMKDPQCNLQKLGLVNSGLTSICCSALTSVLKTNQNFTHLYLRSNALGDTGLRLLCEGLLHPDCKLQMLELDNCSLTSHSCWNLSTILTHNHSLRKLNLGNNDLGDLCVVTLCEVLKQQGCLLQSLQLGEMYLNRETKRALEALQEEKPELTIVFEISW

Mus musculus [5] = experiment: Antiinflammatory activity against DSS-induced ulcerative colitis C57BL/6 mouse model assessed as decrease in disease activity index at 20 to 30 mg/kg, ip fed with DSS for 6 days followed by administration with compound for 5 days; assay type: functional, organism-based; settings: dose 20-30 mg/kg, time 5.0 day
[6] = biological target: T1, Interferon-inducible protein AIM2 (Mus musculus) (UniProt Q91VJ1); experiment: Inhibition of AIM2 inflammasome in C57BL/6 mouse BMDM cells assessed as inhibition of LPS/poly(dA:dT)-induced IL-1 beta secretion at 0.2 to 0.8 uM pretreated with LPS for 3 hrs followed by incubation with compound for 40 mins and later stimulated with poly(dA:dT) for 6 hrs by ELISA; assay type: cell-based; settings: dose 0.2-0.8 µM, time 400.0 min
T1 sequence (whole entry): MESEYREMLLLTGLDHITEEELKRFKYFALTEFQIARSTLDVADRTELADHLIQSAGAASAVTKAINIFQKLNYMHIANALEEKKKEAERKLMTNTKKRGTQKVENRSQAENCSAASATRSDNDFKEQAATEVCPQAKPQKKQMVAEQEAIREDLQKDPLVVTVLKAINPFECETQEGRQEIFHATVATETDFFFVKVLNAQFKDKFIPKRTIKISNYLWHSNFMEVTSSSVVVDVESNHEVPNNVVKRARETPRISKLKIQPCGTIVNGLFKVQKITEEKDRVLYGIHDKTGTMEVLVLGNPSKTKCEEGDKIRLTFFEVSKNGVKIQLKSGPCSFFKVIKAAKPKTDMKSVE

[7] = biological target: NACHT, LRR and PYD domains-containing protein 3 (Mus musculus) (UniProt Q8R4B8); experiment: Inhibition of NLRP3 inflammasome in C57BL/6 mouse BMDM cells assessed as inhibition of IL-1 beta secretion at 0.2 to 0.8 uM pretreated with Pam3CSK4 for 3 hrs followed by incubation with compound for 40 mins and later stimulated with cytosolic LPS for 16 hrs by ELISA; assay type: cell-based; settings: dose 0.2-0.8 µM, time 1000.0 min
[8] = Cmax in BALB/c mouse at 10 mg/kg, iv; assay type: ADME, organism-based; parameters: dose 10 mg/kg, route iv; settings: in vivo
THP-1 [9] = experiment: Effect on NLRP3 protein expression in PMA-differentiated human THP-1 cells at 0.2 to 0.8 uM pretreated with compound for 40 mins followed by LPS challenge for 3 hrs by western blot analysis; assay type: functional, cell-based; settings: dose 0.2-0.8 µM, time 220.0 min
[10] = Tmax in BALB/c mouse at 10 mg/kg, iv; assay type: ADME, organism-based; settings: in vivo
[11] = Oral bioavailability in BALB/c mouse at 10 mg/kg; assay type: ADME, organism-based; settings: in vivo
[12] = AUC (0 to t) in BALB/c mouse at 10 mg/kg, po; assay type: ADME, organism-based; parameters: dose 10 mg/kg, route po; settings: in vivo
[13] = Tmax in BALB/c mouse at 10 mg/kg, po; assay type: ADME, organism-based; settings: in vivo
THP-1 [14] = experiment: Effect on mitochondrial ROS production in PMA-differentiated human THP-1 cells at 0.2 to 45 uM pretreated with LPS for 3 hrs followed by incubation with compound for 40 mins and later stimulated with nigericin for 35 mins by MitoSOX staining based immunofluorescence analysis; assay type: functional, cell-based; settings: dose 0.2-45 µM, time 75.0 min
THP-1 [15] = experiment: Effect on pro-IL-1beta protein expression in PMA-differentiated human THP-1 cells at 0.2 to 0.8 uM pretreated with compound for 40 mins followed by LPS challenge for 3 hrs by western blot analysis; assay type: functional, cell-based; settings: dose 0.2-0.8 µM, time 220.0 min
[16] = biological target: NACHT, LRR and PYD domains-containing protein 3 (Mus musculus) (UniProt Q8R4B8); experiment: Inhibition of NLRP3 inflammasome in C57BL/6 mouse BMDM cells assessed as inhibition of LPS/ATP-induced IL-1 beta secretion at 0.2 to 0.8 uM pretreated with LPS for 3 hrs followed by incubation with compound for 40 mins and later stimulated with ATP for 1 hr by ELISA; assay type: cell-based; settings: dose 0.2-0.8 µM, time 100.0 min
Mus musculus [17] = experiment: Antiinflammatory activity against DSS-induced ulcerative colitis C57BL/6 mouse model assessed as decrease in NLRP3 protein expression in colon at 30 mg/kg, ip fed with DSS for 6 days followed by administration with compound for 5 days and measured on day 11 by western blot analysis; assay type: functional, organism-based; settings: time 5.0 day
THP-1 [18] = experiment: Inhibition of lysosomal damage in PMA-differentiated human THP-1 cells at 0.2 to 45 uM pretreated with LPS for 3 hrs followed by incubation with compound for 40 mins and later stimulated with nigericin for 35 mins by AO staining based analysis; assay type: functional, cell-based; settings: dose 0.2-45 µM, time 75.0 min
Mus musculus [19] = experiment: (§1) Antiinflammatory activity against DSS-induced ulcerative colitis C57BL/6 mouse model assessed as decrease in goblet cell loss in colon at 10 to 30 mg/kg, ip fed with DSS for 6 days followed by administration with compound for 5 days and measured on day 11 by H and E staining based analysis; assay type: functional, organism-based; settings: dose 10-30 mg/kg, time 5.0 day
Mus musculus [20] = experiment: Antiinflammatory activity against DSS-induced ulcerative colitis C57BL/6 mouse model assessed as decrease in IL-1 beta level in colon at 10 to 30 mg/kg, ip fed with DSS for 6 days followed by administration with compound for 5 days and measured on day 11 by ELISA; assay type: functional, organism-based; settings: dose 10-30 mg/kg, time 5.0 day
THP-1 [21] = experiment: Cytotoxicity against PMA-differentiated human THP-1 cells assessed as cell viability at 0.16 to 20 uM incubated for 24 hrs by CCK8 assay; assay type: toxicity, cell-based; settings: thp-1, 24 h, dose 0.16-20 µM
Mus musculus [22] = experiment: Antiinflammatory activity against DSS-induced ulcerative colitis C57BL/6 mouse model assessed as decrease in TNF-alpha level in colon at 10 to 30 mg/kg, ip fed with DSS for 6 days followed by administration with compound for 5 days and measured on day 11 by ELISA; assay type: functional, organism-based; settings: dose 10-30 mg/kg, time 5.0 day
[23] = Half life in BALB/c mouse at 10 mg/kg, po; assay type: ADME, organism-based; settings: in vivo
Mus musculus [24] = experiment: as §1, with “inflammatory” for “goblet”, “infiltration” for “loss”; assay type: functional, organism-based; settings: dose 10-30 mg/kg, time 5.0 day
Homo sapiens [25] = species: Homo sapiens; experiment: Binding affinity to N-terminal GST-tagged human NLRP3deltaLRR mutant (1 to 649 residues) expressed in Escherichia coli BL21 assessed as decrease in pronase-mediated protein degradation at 1 to 100 uM incubated with compound for 50 mins followed by pronase digestion for 30 mins by DARTS analysis; settings: dose 1-100 µM, time 80.0 min
[26] = MRT (0 to t) in BALB/c mouse at 10 mg/kg, po; assay type: ADME, organism-based; settings: in vivo
BMDM = experiment: Cytotoxicity against C57BL/6 mouse BMDM cells assessed as cell viability at 0.16 to 20 uM incubated for 24 hrs by CCK8 assay; assay type: toxicity, cell-based; settings: dose 0.16-20 µM

Structure (SMILES): CC(C)c1nn(Cc2nnc(-c3ccc(C(F)(F)F)nc3Cl)o2)c(=O)c2cc3sc(Cl)cc3n12
- Activity (Homo sapiens [1]): Active
- half-life [2]: 0.525 h
- half-life [3]: 2.06 h
- inhibition [4]: Active
- Activity (Mus musculus [5]): Active
- inhibition [6]: inactive
- inhibition [7]: Active
- Cmax [8]: 3890 ng/mL
- Activity (THP-1 [9]): inactive
- Tmax [10]: 4.8 min
- bioavailability [11]: 22.5%
- AUC(0-t) [12]: 1170 ng·h/mL
- Tmax [13]: 1 h
- Activity (THP-1 [14]): inactive
- Activity (THP-1 [15]): inactive
- inhibition [16]: Active
- Activity (Mus musculus [17]): Active
- inhibition (THP-1 [18]): inactive
- Activity (Mus musculus [19]): Active
- Activity (Mus musculus [20]): Active
- Activity (THP-1 [21]): Non-Toxic
- Activity (Mus musculus [22]): Active
- half-life [23]: 1.31 h
- Activity (Mus musculus [24]): Active
- Activity (Homo sapiens [25]): Active
- MRT last [26]: 3.27 h
- Activity (BMDM): Non-Toxic
